From ChEMBL document CHEMBL4706653, “Ultra-short lipopeptides against gram-positive bacteria while alleviating antimicrobial resistance” (Eur J Med Chem, 2021) come the findings set out here.

Activity calls are given as the source filed them. No cut-off for these calls is given here. Residues, ends and D or L forms follow the SMILES beside them. *: point of attachment. Myristoyl = CCCCCCCCCCCCCC(=O)*; Lauroyl = CCCCCCCCCCCC(=O)* Where only a bound is given, the exact number is not on record here.

Data set [1] concerns Staphylococcus aureus. The data set is described as follows: Ratio of MIC for antimicrobial activity against Staphylococcus aureus ATCC 25923 in presence of 2.5% serum to MIC for antimicrobial activity against Staphylococcus aureus ATCC 25923 in absence of serum. The data set is classed as functional.
The nature of data set [2]: Stability in mouse serum assessed as parent compound remaining at volume ratio of 1:19 measured after 6 hrs by RP-HPLC analysis. The data set is classed as ADME, cell-free. To be noted: read-out: Stabilty.
Data set [3] deals with Staphylococcus aureus. The data set is described as follows: Antimicrobial activity against Staphylococcus aureus ATCC 25923 assessed as bacterial killing at 4 times MIC preincubated for 30 mins followed by replating on MHB agar and measured after 24 hrs by time kill assay. The class given is functional, organism-based. The note with it: time 24.5 hrs.
Data set [4] concerns Staphylococcus aureus. In words: Antimicrobial activity against Staphylococcus aureus ATCC 25923 assessed as bacterial killing at 2 times MIC preincubated for 2 hrs followed by replating on MHB agar and measured after 24 hrs by time kill assay. To be noted: time 26.0 hrs. The data set is classed as functional, organism-based.
In data set [5] the test system is Staphylococcus aureus. The data set is described as follows: Antimicrobial activity against Staphylococcus aureus ATCC 25923 assessed as reduction in bacterial growth at 0.5 to 1 times MIC preincubated for 4 hrs followed by replating on MHB agar and measured after 24 hrs by time kill assay. The data set is classed as functional, organism-based. The note with it: time 28.0 hrs.

Data set [6] deals with Staphylococcus aureus. In words: Potentiation of ciprofloxacin-induced antimicrobial activity against methicillin-resistant Staphylococcus aureus 75 at 0.5 uM after 18 hrs by broth microdilution method. The class given is functional, organism-based.
Data set [7] concerns Cell membrane. The data set is described as follows: Induction of cytoplasmic membrane disruption in Staphylococcus aureus ATCC 25923 measured for 15 mins by DiSC3-5 dye based fluorescence assay.
The subject of data set [8] is Cell membrane. In words: Induction of membrane disruption in Staphylococcus aureus ATCC 25923 assessed as PI-positive cells at 4 times MIC measured after 30 mins by propidium iodide staining based flow cytometry relative to control. For orientation: Flow cytometry measures light scatter and fluorescence of single cells or particles in a stream.
The test system of another data set is HEK-293T. In words: Cytotoxicity against HEK293T cells assessed as reduction in cell viability at 64 to 128 uM measured after 24 hrs by MTT assay. The note with it: human, dose 64-128 µM. The data set is classed as cell-based.
Data set [9] is described as follows: Stability in mouse serum assessed as drug degradation at volume ratio of 1:19 measured after 6 hrs by RP-HPLC analysis. The class given is ADME, cell-free. The note with it: read-out: Drug degradation.
Data set [10] has as its system Staphylococcus aureus. The data set is described as follows: Antimicrobial activity against Staphylococcus aureus ATCC 25923 assessed as bacterial killing at 2 to 4 times MIC preincubated for 30 mins followed by replating on MHB agar and measured after 24 hrs by time kill assay. The data set is classed as functional, organism-based. To be noted: time 24.5 hrs.
Data set [11] has as its system Staphylococcus aureus. The data set is described as follows: Antimicrobial activity against Staphylococcus aureus ATCC 25923 assessed as bacterial killing at MIC preincubated for 1 hr followed by replating on MHB agar and measured after 24 hrs by time kill assay. The data set is classed as functional, organism-based. The note with it: time 25.0 hrs.
The subject of data set [12] is Staphylococcus aureus. The data set is described as follows: Antimicrobial activity against Staphylococcus aureus ATCC 25923 assessed as bacterial killing at 0.5 times MIC preincubated for 4 hrs followed by replating on MHB agar and measured after 24 hrs by time kill assay. The class given is functional, organism-based. To be noted: time 28.0 hrs.
Data set [13] can be described thus: Cytotoxicity against HEK293T cells assessed as cell viability at 128 uM measured after 24 hrs by MTT assay relative to control. The class given is cell-based, HEK-293T. The note with it: human, read-out: Activity. For orientation: Tetrazolium dyes change colour on reduction, which living cells bring about.
A short description of data set [14]: Toxicity in BALB/c mouse assessed as effect on body weight at 20 to 80 mg/kg, ip administered as single dose measured for 5 days. The data set is classed as organism-based. The note with it: in vivo, 120 h, dose 20-80 mg/kg, time 5 day.
A short description of data set [15]: Toxicity in BALB/c mouse assessed as ruffled fur at 80 mg/kg, ip administered as single dose measured for 5 days. The class given is organism-based. To be noted: in vivo, 120 h, time 5 day.
A short description of data set [16]: Toxicity in BALB/c mouse assessed as effect on motility at 80 mg/kg, ip administered as single dose measured for 5 days. The class given is organism-based. The note with it: in vivo, 120 h, time 5 day.
Data set [17] in a line: Toxicity in BALB/c mouse assessed as inflammatory cell infiltration in liver at 80 mg/kg, ip administered as single dose measured after 5 days. The class given is organism-based. To be noted: in vivo, 120 h, time 5 day.
Data set [18] can be described thus: Toxicity in BALB/c mouse assessed as inflammatory cell infiltration in liver at 20 to 40 mg/kg, ip administered as single dose measured after 5 days. The class given is organism-based. To be noted: in vivo, 120 h, dose 20-40 mg/kg, time 5 day.
A short description of data set [19]: Toxicity in BALB/c mouse assessed as swelling of renal tubular epithelial cells at 80 mg/kg, ip administered as single dose measured after 5 days. The data set is classed as organism-based. To be noted: in vivo, 120 h, time 5 day.
The nature of data set [20]: Toxicity in BALB/c mouse assessed as eosinophilic mass in the renal tubular lumen at 80 mg/kg, ip administered as single dose measured after 5 days. The data set is classed as organism-based. To be noted: in vivo, 120 h, time 5 day.
A short description of data set [21]: Toxicity in BALB/c mouse assessed as inflammatory cell infiltration in kidney at 80 mg/kg, ip administered as single dose measured after 5 days. The data set is classed as organism-based. To be noted: in vivo, 120 h, time 5 day.
For data set [22], the system named is Staphylococcus aureus. The data set is described as follows: Antimicrobial activity against Staphylococcus aureus ATCC 25923 infected in neutropenia BALB/c mouse assessed as reduction in lung bacterial load at 10 to 20 mg/kg, ip administered staring from 2 hrs post infection and measured 8 hrs post-infected. The data set is classed as functional, organism-based. To be noted: dose 10-20 mg/kg, time 6.0 hrs.

The test system of data set [23] is Staphylococcus aureus. In words: Antimicrobial activity against Staphylococcus aureus ATCC 25923 infected in neutropenia BALB/c mouse assessed as reduction in bacterial load in spleen at 10 to 20 mg/kg, ip administered staring from 2 hrs post infection and measured 8 hrs post-infected. The data set is classed as functional, organism-based. To be noted: dose 10-20 mg/kg, time 6.0 hrs.

The subject of data set [24] is Staphylococcus aureus. The data set is described as follows: Antimicrobial activity against Staphylococcus aureus ATCC 25923 infected in neutropenia BALB/c mouse assessed as reduction in bacterial load in kidney at 10 to 20 mg/kg, ip administered staring from 2 hrs post infection and measured 8 hrs post-infected. The class given is functional, organism-based. The note with it: dose 10-20 mg/kg, time 6.0 hrs.

The test system of data set [25] is Staphylococcus aureus. The data set is described as follows: Antimicrobial activity against Staphylococcus aureus ATCC 25923 infected in neutropenia BALB/c mouse assessed as reduction in bacterial load in liver at 10 to 20 mg/kg, ip administered staring from 2 hrs post infection and measured 8 hrs post-infected. The class given is functional, organism-based. To be noted: dose 10-20 mg/kg, time 6.0 hrs.

For data set [26], the system named is Staphylococcus aureus. The data set is described as follows: Antimicrobial activity against Staphylococcus aureus ATCC 25923 infected in neutropenia BALB/c mouse assessed as reduction in lung bacterial load at 10 mg/kg, ip administered staring from 2 hrs post infection and measured 8 hrs post-infected in presence of ciprofloxacin. The data set is classed as functional, organism-based. The note with it: time 6.0 hrs.

Data set [27] relates to Staphylococcus aureus. The data set is described as follows: Antimicrobial activity against Staphylococcus aureus ATCC 25923 infected in neutropenia BALB/c mouse assessed as reduction in bacterial load in spleen at 10 mg/kg, ip administered staring from 2 hrs post infection and measured 8 hrs post-infected in presence of ciprofloxacin. The class given is functional, organism-based. The note with it: time 6.0 hrs.

Data set [28] relates to Staphylococcus aureus. The data set is described as follows: Antimicrobial activity against Staphylococcus aureus ATCC 25923 infected in neutropenia BALB/c mouse assessed as reduction in bacterial load in kidney at 10 mg/kg, ip administered staring from 2 hrs post infection and measured 8 hrs post-infected in presence of ciprofloxacin. The class given is functional, organism-based. To be noted: time 6.0 hrs.

Data set [29] deals with Staphylococcus aureus. The data set is described as follows: Antimicrobial activity against Staphylococcus aureus ATCC 25923 infected in neutropenia BALB/c mouse assessed as reduction in bacterial load in liver at 10 mg/kg, ip administered staring from 2 hrs post infection and measured 8 hrs post-infected in presence of ciprofloxacin. The class given is functional, organism-based. To be noted: time 6.0 hrs.

For data set [30], the system named is Mus musculus. In words: Antiinflammatory activity in Staphylococcus aureus ATCC 25923 infected neutropenia BALB/c mouse assessed as reduction in TNFalpha level in serum at 10 to 20 mg/kg, ip administered staring from 2 hrs post infection and measured 8 hrs post-infected. The data set is classed as functional, organism-based. To be noted: dose 10-20 mg/kg, time 6.0 hrs.

Data set [31] deals with Mus musculus. In words: Antiinflammatory activity in Staphylococcus aureus ATCC 25923 infected neutropenia BALB/c mouse assessed as reduction in TNFalpha level in serum at 10 mg/kg, ip administered staring from 2 hrs post infection and measured 8 hrs post-infected in presence of ciprofloxacin. The class given is functional, organism-based. To be noted: time 6.0 hrs.

For `CCCCCCCCCCCC(=O)N[C@@H](CCCNC(=N)N)C(=O)N[C@@H](CCCNC(=N)N)C(=O)N[C@@H](Cc1c[nH]c2ccccc12)C(N)=O` (Lauroyl-Arg-Arg-Trp-NH2), the Ratio with Staphylococcus aureus [1] amounted to 8. Further, the remaining at 6 h in [2] stood at 70%. Also, the result with Staphylococcus aureus [3] and with Staphylococcus aureus [4] was Active. Further, the result in the data set with Staphylococcus aureus [5] and in the data set with Staphylococcus aureus [6] was inactive. Besides, the Activity result with Cell membrane [7] was “Dose-dependent effect”; in the data set on Cell membrane [8], 77.2%; in the data set with HEK-293T, “Toxic”.

In the case of `CCCCCCCCCCCCCC(=O)N[C@@H](CCCNC(=N)N)C(=O)N[C@@H](Cc1c[nH]c2ccccc12)C(=O)N[C@@H](Cc1c[nH]c2ccccc12)C(N)=O` (Myristoyl-Arg-Trp-Trp-NH2), the metabolised at 6 h in data set [9] worked out at 70%. The result in the data set with Staphylococcus aureus [10], in the data set on Staphylococcus aureus [11], in the data set with Staphylococcus aureus [22], in the data set on Staphylococcus aureus [23], in the data set with Staphylococcus aureus [24] and with Staphylococcus aureus [25] was Active. In addition, the outcome in the data set with Staphylococcus aureus [26], in the data set with Staphylococcus aureus [27], in the data set on Staphylococcus aureus [28], with Staphylococcus aureus [29], in the data set on Mus musculus [30] and in the data set on Mus musculus [31] was Active. Besides, the outcome with Staphylococcus aureus [12] and with Staphylococcus aureus [6] was inactive. Besides, the viability at 24 h, 128 µM in data set [13] is > 80%. The Activity entry is “Toxic” in data set [14]; “Toxic” in [15]; “Toxic” in data set [16]; “Toxic” in data set [17]; “Non-Toxic” in data set [18]; “Toxic” in [19]. Also, the Activity entry in [20] and in [21] was “Toxic” each time.
